Measured values published in patent US7786152B2, “Compound” (priority 2002, dated 2010).

molecular target: T1, 11 β-HSD type 1 (Rattus norvegicus, UniProt P16232); assay: 11 β-HSD type 1 inhibition, rat liver homogenate, conversion E to F (radiometric TLC); assay type: biochemical; conditions: dose-response 1, 5, 10 and 20 μM, read-out: IC50 (11β HSD1)
T1 construct: Both the kidneys and livers were homogenised on ice in PBS-sucrose buffer; tissue Harlan Olac (rats); host or cells: Wistar rat liver homogenate supernatant
Description: Enzymes—Rat livers and rat kidneys were obtained from normal Wistar rats (Harlan Olac, Bicester, Oxon, UK). Both the kidneys and livers were homogenised on ice in PBS-sucrose buffer (1 g/10 ml) using an Ultra-Turrax. After the livers and kidneys were homogenised the homogenate was centrifuged for five minutes at 4000 rpm. The supernatant obtained was removed and stored in glass vials at −20° C. The amount of protein per μl of rat liver and kidney cytosol was determined using the Bradford method.
11 β-HSD type 1 is the enzyme responsible for the conversion E to F and this type of enzyme is present in rat liver. The substrate solution used in this assay contained 70,000 cpm/ml ^3H-E in PBS-sucrose and 0.5 μM of unlabelled E and co-factor NADPH (9 mg/10 ml of substrate solution). 1 ml of the substrate solution and the different amounts of rat liver homogenate was added to all tubes.
The amount of rat liver homogenate needed for an assay was determined by incubating the substrate solution with 25, 50, 100 and 150 μl for 30, 60, 90 and 120 minutes at 37° C. in a water bath with the tubes being mechanically shaken. After the incubation 50 μL of recovery solution was added, containing about 8,000 cpm/50 μL of ^14C—F and 50 μg/50 μL of unlabelled F for visualising the spot on the TLC-plate, to correct for the losses made in the next two steps. F was then extracted from the aqueous phase with 4 ml of ether (2×30 sec cycle, vortex mix). The aqueous phase was then frozen using dry-ice and the organic layer was decanted and poured into smaller tubes and evaporated. 6 drops of ether were then added to the small tubes to re-dissolve the residue which was transferred to an aluminium thin layer chromatography plate (TLC-plate). The TLC-plate was developed in a TLC tank under saturated conditions. The solvent system used was chloroform:methanol 9:1 (v/v). The F spots on the TLC-plate were visualised under UV-light and cut out from the TLC-plate (Rf=0.45). The spots from the TLC-plate were then put into scintillation vials and 0.5 ml of methanol was added to all vials to elute the radioactivity from the TLC-plate for 5 minutes. 10 ml of Ecoscint was added to the scintillation vials and they were put into the scintillation counter to count amount of product formed.
In these assays the influence of different inhibitors on the 11 β-HSD activity both in reductive (type 1) and oxidative (type 2) directions were assessed. In the reductive direction E is the substrate and F the product and visa versa in the case of oxidation. The method described here is for the oxidative direction.
The substrate solution contained about 50,000 cpm/ml ^3H—F in PBS-sucrose and 0.5 μM F. 1 ml of the substrate solution was added to each tube, the inhibitors were also added, at a 10 μM concentration, to each tube except to the “control” and “blank” tubes. 150 μL was added to all tubes except to the blanks, this was done to correct for the amount of ^3H—F spontaneously formed. The tubes were incubated for 60 minutes in a mechanically shaken water bath at 37° C. The amount of kidney liver homogenate and incubation time used resulted from the enzyme- and time-dependency assay. After incubation 50 μL of recovery was added to correct for the losses made in the next steps, containing 5000 cpm/50 μL of ^14C-E and 50 μg/50 μL of unlabelled E (to visualise the spot on the TLC-plate). The aqueous mixture was then extracted with 4 ml of ether (2×30 sec cycle, vortex mix). After freezing the aqueous phase, the ether (upper) layer was decanted into smaller tubes and evaporated at 45° C. until completely dry. The residue was then re-dissolved in 6 drops of ether and transferred to a TLC-plate. The TLC-plate was developed in chloroform:methanol (9:1 v/v) solvent system, the TLC-plate ran for about 90 minutes until the solvent front had moved about 18 cm. The position of the product E was visualised under UV-light and cut out from the TLC-plate and put into scintillation vials. […]

T1 sequence (P16232 whole entry): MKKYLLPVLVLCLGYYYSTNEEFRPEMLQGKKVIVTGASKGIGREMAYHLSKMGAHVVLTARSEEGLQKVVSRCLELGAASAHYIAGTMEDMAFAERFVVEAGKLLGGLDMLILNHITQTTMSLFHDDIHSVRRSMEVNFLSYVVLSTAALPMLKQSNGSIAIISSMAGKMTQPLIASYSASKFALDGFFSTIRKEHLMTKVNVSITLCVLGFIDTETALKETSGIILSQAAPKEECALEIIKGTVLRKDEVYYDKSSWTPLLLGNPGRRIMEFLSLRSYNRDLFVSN

SMILES	IC50 [µM]
Cc1nc2cc(NS(=O)(=O)c3cccc(Cl)c3C)ccc2s1 [compound 413]	6.6
CCCc1ccc(S(=O)(=O)Nc2ccc3sc(C)nc3c2)cc1 [compound 421]	10

same assay, conditions: read-out: % inhibition of 11β HSD1 @ 10 μM, 10 μM, typical sd ± 5%, means n=2

SMILES	inhibition at 10 µM [%]
Cc1nc2cc(NS(=O)(=O)c3ccc(Cl)cc3Cl)ccc2s1 [compound 412]	27
Cc1nc2cc(NS(=O)(=O)c3cccc(Cl)c3C)ccc2s1 [compound 413]	53
CCCc1ccc(S(=O)(=O)Nc2ccc3sc(C)nc3c2)cc1 [compound 421]	60
COc1ccc(S(=O)(=O)Nc2ccc3sc(C)nc3c2)cc1 [compound 424]	24
Cc1nc2cc(NS(=O)(=O)c3c(C)cccc3Cl)ccc2s1 [compound 425]	40
Cc1nc2cc(N(C)S(=O)(=O)c3cccc(Cl)c3C)ccc2s1 [compound 469]	63
CCN(c1ccc2sc(C)nc2c1)S(=O)(=O)c1cccc(Cl)c1C [compound 470]	39
Cc1nc2cc(NS(=O)(=O)c3ccc(Br)cc3)ccc2s1 [compound 519]	48
Cc1nc2cc(NS(=O)(=O)c3ccc(-c4ccccc4)cc3)ccc2s1 [compound 521]	0.5
Cc1nc2cc(NS(=O)(=O)c3c(Cl)cc(Cl)cc3Cl)ccc2s1 [compound 522]	37
Cc1nc2cc(NS(=O)(=O)c3ccc(Br)cc3C)ccc2s1 [compound 523]	21
Cc1nc2cc(NS(=O)(=O)c3cccc4cccnc34)ccc2s1 [compound 552]	18
Cc1nc2cc(NS(=O)(=O)c3cccc4ccccc34)ccc2s1 [compound 553]	0.7
Cc1nc2cc(NS(=O)(=O)c3cccc4c(N(C)C)cccc34)ccc2s1 [compound 554]	69
Cc1nc2cc(NS(=O)(=O)c3cc(Cl)ccc3Cl)ccc2s1 [compound 580]	75
Cc1nc2cc(NS(=O)(=O)c3ccc4c(c3)CN(C(=O)C(F)(F)F)CC4)ccc2s1 [compound 581]	77
COc1ccc(Cl)cc1S(=O)(=O)Nc1ccc2sc(C)nc2c1 [compound 582]	40
Cc1nc2cc(NS(=O)(=O)c3ccccc3C#N)ccc2s1 [compound 583]	29
COc1cc(C)ccc1S(=O)(=O)Nc1ccc2sc(C)nc2c1 [compound 584]	48
Cc1nc2cc(NS(=O)(=O)c3ccc(Oc4ccccc4)cc3)ccc2s1 [compound 585]	48
CC(=O)c1ccccc1S(=O)(=O)Nc1ccc2sc(C)nc2c1 [compound 701]	34
Cc1nc2cc(NS(=O)(=O)c3c(C(C)C)cc(C(C)C)cc3C(C)C)ccc2s1 [compound 703]	35
Cc1nc2cc(NS(=O)(=O)c3ccc(C(C)C)cc3)ccc2s1 [compound 704]	38
COC(=O)c1ccccc1S(=O)(=O)Nc1ccc2sc(C)nc2c1 [compound 705]	6
COc1c(C)c(C)c(S(=O)(=O)Nc2ccc3sc(C)nc3c2)c(C)c1C [compound 708]	39
Cc1nc2cc(NS(=O)(=O)c3ccc(C(C)(C)C)cc3)ccc2s1 [compound 709]	10
Cc1nc2cc(NS(=O)(=O)c3c(C)c(C)c(C)c(C)c3C)ccc2s1 [compound 710]	55
CCSc1nc2ccc(NS(=O)(=O)c3cccc(Cl)c3C)cc2s1 [compound 751]	10
